Data as given in patent US8617516B2, “Universal anchor peptide for nanoparticles” (Washington University, priority 2008, dated 2013).

Columns and labels:
[1] = Fluorescence correlation spectroscopy (FCS) diffusion time; type: physicochemical; details: mean±STD (n=3)
Text: FCS is a quantitative technique, which detects fluorescence intensity fluctuations as fluorescent molecules diffuse through a small observation volume (<1 femtoliter). Statistical analysis of these fluorescence intensity fluctuations allows simultaneous determination of the number of fluorescent species in the system and their mobility.
In our case the observation volume is defined by the focal volume of a laser scanning microscope, while the statistical analysis of the intensity trace is calculated as follows: […]
The correlation curve obtained from the experiment is fitted with a mathematical function which describes the fluorescence intensity fluctuations in the observation volume according to Brownian diffusion and it also accounts for the photophysical characteristics of the dye:
where N is the average number of fluorescent particles in the observation volume, T is the fraction of fluorophores in the triplet state, τT is the lifetime of the triplet state of the fluorophore, τD is the characteristic diffusion time of the fluorophore, ω0 the waist radius of the laser focus. […]
The waist of the focus ω0 was determined by fitting the autocorrelation curve obtained in the same experimental conditions using free Alexa Fluor 488 [22]. In the case of labeled peptide binding to the nanoparticles the correlation curves were analyzed using the two component model as was described previously.

[2] = Surface plasmon resonance of NBD-Linker incorporation into PFC nanoparticles; type: binding; details: NBD-Linker on immobilized PFC nanoparticles, two-state model; read-out: dissociation constant of the entire process
Experimental: The kinetics of NBD-Linker incorporation into lipid monolayers of PFC nanoparticles was studied by surface plasmon resonance (SPR). SPR detects change in the […] of a surface (Biacore-X 100 and carboxymethylated dextran chip L1 from Biacore Inc, Piscataway, N.J.). A uniform lipid monolayer on a L1 chip was created by injecting PFC nanoparticles (3 μl/min) for 30 minutes. Loosely deposited nanoparticles were removed by performing extra washing steps after immobilization to ensure a stable baseline. Complete coverage was confirmed by injecting the bovine serum albumin (1 mg/ml in PBS) at 15 μl/min for 2 minutes. Different peptides in selected concentrations were injected at a flow rate of 30 μl/min for 1 minute. At the end of each experiment the chip was regenerated by two consecutive injections of 3-[(3-cholamidopropyl)dimethylammonio]-1-propanesulfonate, CHAPS (50 μl, 100 μl/min). The data were analyzed with BiaEvaluation software (Biacore Inc, Piscataway, N.J.). A two-state model, [17].
To investigate the release rate of the NBD-Linker from the PFC nanoparticles, surface plasma resonance experiments were performed with a Biacore X 100, which allows quantitative analysis of interaction between peptide and lipid membrane. […] We consistently recorded two populations of peptides in the peptide-lipid interactions. […]

[3] = Dynamic light scattering size and zeta potential of peptide-loaded PFOB/PFC nanoparticles; type: physicochemical; details: PFC nanoparticles without and with various amount of peptide loading
Experimental: The size distributions of the nanoparticles with or without the linker peptide were analyzed by dynamic light scattering (Brookhaven Instruments Corp., Holtsville, N.Y.). Zeta potential (ζ) values were determined with a Brookhaven Instruments PALS Zeta Potential Analyzer (Brookhaven Instruments Corp., Holtsville, N.Y.). Data were acquired in the phase-analysis light scattering (PALS) mode following solution equilibration at 25° C. […] This change further confirms the insertion of the linker peptide 1 into the PFOB nanoparticles. Furthermore, the structural integrity of linker peptide 1 inserted PFOB nanoparticles was confirmed by transmission electron microscopy.
The size distributions of the nanoparticles with or without cargo incorporated were analyzed by dynamic light scattering (Brookhaven Instruments Corp., Holtsville, N.Y.). The size distribution was plotted by particle number. Zeta potential (ζ) values were determined with a Brookhaven Instruments PALS Zeta Potential Analyzer (Brookhaven Instruments Corp., Holtsville, N.Y.). Data were acquired in the phase-analysis light scattering (PALS) mode following solution equilibration at 25° C.

Compound	diffusion time [1] [μsec]	Kd [2] [nM]	mean diameters [3]
N=c1ccc2c(-c3ccc(C(=O)O)cc3C(=O)O)c3ccc(N)c(S(=O)(=O)O)c3oc-2c1S(=O)(=O)O [Alexa Fluor 488]	35.8±1.4	–	–
NBD peptide (TALDWSWLQTE) fused onto the N-terminal of linker peptide (VLTTGLPALISWIKRKRQQ) with two glycines as a spacer [NBD-Linker]	–	140	equivalent
